Key:
human mGlu2 receptor = biological target: T1, human mGlu2 receptor (Homo sapiens, UniProt Q14416); assay: [35S]GTPγS binding assay, mGluR2 negative allosteric modulation; format: biochemical; details: for Emax: maximal % inhibition relative to the control glutamate response (EC80 glutamate), read-out: GTPγS-hmGluR2 anGT Emax; for IC50: membranes from CHO cells transfected with human mGlu2 receptor, glutamate ~EC80 (60 μM), read-out: GTPγS-hmGluR2 anGT pIC50 (converted)
T1 construct: expressed in transfected cells; host or cells: CHO cells (membrane preparation)
T1 sequence (Q14416 19-872): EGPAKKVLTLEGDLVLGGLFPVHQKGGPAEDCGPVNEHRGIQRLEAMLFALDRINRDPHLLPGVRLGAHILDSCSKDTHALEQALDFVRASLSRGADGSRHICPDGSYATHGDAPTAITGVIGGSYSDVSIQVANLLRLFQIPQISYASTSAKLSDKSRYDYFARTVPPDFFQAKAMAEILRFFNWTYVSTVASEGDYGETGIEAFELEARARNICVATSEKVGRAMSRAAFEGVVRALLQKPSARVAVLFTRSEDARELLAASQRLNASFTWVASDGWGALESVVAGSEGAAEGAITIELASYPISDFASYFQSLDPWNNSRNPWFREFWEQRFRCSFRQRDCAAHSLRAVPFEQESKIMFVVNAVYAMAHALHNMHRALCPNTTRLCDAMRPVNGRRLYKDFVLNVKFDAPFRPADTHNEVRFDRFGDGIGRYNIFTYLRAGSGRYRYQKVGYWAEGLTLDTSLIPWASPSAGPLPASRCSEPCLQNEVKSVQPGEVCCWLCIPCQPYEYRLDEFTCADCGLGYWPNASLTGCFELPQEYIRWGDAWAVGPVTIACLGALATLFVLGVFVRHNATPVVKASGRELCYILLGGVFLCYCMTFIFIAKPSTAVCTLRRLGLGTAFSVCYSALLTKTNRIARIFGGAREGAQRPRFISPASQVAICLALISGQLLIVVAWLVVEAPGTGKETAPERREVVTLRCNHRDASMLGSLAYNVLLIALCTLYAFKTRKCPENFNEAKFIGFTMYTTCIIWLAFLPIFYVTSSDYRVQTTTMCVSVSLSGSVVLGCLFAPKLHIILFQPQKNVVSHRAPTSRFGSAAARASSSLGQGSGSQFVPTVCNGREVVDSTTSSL
Protocol: Total reaction volume was 200 μl. […] Membrane-bound radioactivity was counted in a Topcount.

rats = assay: Reversal of the effect of the mGluR2 PAM JNJ-42153605-induced inhibition of scopolamine-induced hyperlocomotion; format: in vivo, rat; details: Rattus norvegicus; rats; PO, 60 min pretreatment; JNJ-42153605 20 mg/kg i.v. + scopolamine 0.16 mg/kg i.v.; criterion total distance >1500 cm in 30 min; read-out: SCOP JNJ-42153605 ED50
Protocol: Motor activity was measured in microprocessor-based motor activity arenas (closed gray PVC cylinders with a height of 39 cm and a diameter of 31 cm). Each arena was placed on an infrared LED (8×8 LEDs) lit box (white PVC squared box; 40×40 cm^2; height 12.5 cm. An infrared-sensitive tube camera and a white light source were mounted to the ceiling above the observation chamber to track the animal. […] Noldus, Wageningen, The Netherlands). The intensity of the light within the activity cages (measured in the centre at the level of the floor) ranged between 4 and 8 LUX. The rats were pretreated with test compound or vehicle at 60 min before the start of the activity recordings and placed into individual cages. […] WO2010/130424; Cid et al. J. Med.

Structure (SMILES)	Emax (human mGlu2 receptor) [%]	IC50 (human mGlu2 receptor) [nM]	ED50 (rats) [mg/kg]	melting point [°C]
Cc1ccncc1-c1cc(-c2cnn3c2C(=O)N(c2ccc(C(F)(F)F)cc2)C[C@@H]3C)no1 [Co. No. 18, (7S)-7-Methyl-3-[5-(4-methyl-3-pyridyl)isoxazol-3-yl]-5-[4-(trifluoromethyl)phenyl]-6,7-dihydropyrazolo[1,5-a]pyrazin-4-one]	109	2.24	0.51	197.33
C[C@H]1CN(c2ccc(C(F)(F)F)cc2)C(=O)c2c(-c3cc(-c4cccnc4)on3)cnn21 [Co. No. 5, (7S)-7-methyl-3-[5-(3-pyridyl)isoxazol-3-yl]-5-[4-(trifluoromethyl)phenyl]-6,7-dihydropyrazolo[1,5-a]pyrazin-4-one]	106	11.2	0.51	215.1
C[C@H]1CN(c2ccc(C(F)(F)F)cc2)C(=O)c2c(-c3cc(-c4ccc(N)nc4)on3)cnn21 [Co. No. 2, (7S)-3-[5-(6-Amino-3-pyridyl)isoxazol-3-yl]-7-methyl-5-[4-(trifluoromethyl)phenyl]-6,7-dihydropyrazolo[1,5-a]pyrazin-4-one]	103	2.04	0.5	233.79
Cc1ccncc1-c1cc(-c2cnn3c2C(=O)N(c2ccc(C(F)(F)F)c(Cl)c2)C[C@@H]3C)no1 [Co. No. 20, (7S)-5-[3-chloro-4-(trifluoromethyl)phenyl]-7-methyl-3-[5-(4-methyl-3-pyridyl)isoxazol-3-yl]-6,7-dihydropyrazolo[1,5-a]pyrazin-4-one]	113	1.41	0.51	149.63

— US10017514B2, “6,7-dihydropyrazolo[1,5-α]pyrazin-4(5H)-one compounds and their use as negative allosteric modulators of mGluR2 receptors” (Janssen Pharmaceutica NV, priority 2014, dated 2018)
